This series can be described thus: Persistence of PMO and P-PMO in serum and tissues two weeks post-last dose (FIGS. 5a, 5b). Format: in vivo. As to conditions: mice. The protocol: PMO or P-PMO serial dilutions for standard curves and quality controls in 5.0% mouse serum, and 5.0 mg/ml or 1.0 mg/ml tissue homogenates were made using 1×TE buffer supplemented with 0.1% v/v Triton X-100 with a starting concentration of 51.2 nM PMO/P-PMO. Serum samples were diluted 20-fold, and tissues were homogenized and diluted to 5.0 mg/ml or 1.0 mg/ml tissue homogenates with the same buffer. 200 μL of calibrator solution, quality control, and/or sample were treated with 20 μL of 40 mg/ml trypsin (purchased as lyophilized powder from Sigma-Aldrich) at 37° C. overnight in a deep 1.0-mL 96-well plate on thermomixer C (600 rpm) to cleave the peptide component and release the PMO. 40 μL of 2.5 nM oligonucleotide probe in hybridization buffer (with 0.1% serum) was added to each well. The plate was then sealed, incubated at 65° C. for 15 minutes (600 rpm), and allowed to cool at room temperature for 15 minutes. […] The intensity of fluorescence at 444 nm excitation and 555 nm emission was measured by a […] SpectraMax MT5 microplate reader.
In order to test the persistence of oligonucleotides, serum and various tissues were also analyzed two weeks post-last dose. Serum levels for both PMO and P-PMO treated mice were measured in the 1 nM range. At this time point the overall oligonucleotide levels in the tissues analyzed were also similar (FIG. 5a). […]

The text below walks through data of patent publication US20220372560A1, “METHODS FOR DETECTING OLIGONUCLEOTIDES” (Takeda Pharmaceutical Company Limited, priority 2019, published 2022).

“PMO: 25-mer PMO antisense sequence for mouse dystrophin exon-23, 5′-GGCCAAACCTCGGCTTACCTGAAAT-3′ (SEQ ID NO: 1), not conjugated to a peptide (all phosphorodiamidate morpholino (PMO))” gave a serum levels of about 1 nM. In addition, the “overall oligonucleotide levels in the tissues analyzed, PMO compared with P-PMO” value (absolute concentrations (FIG. 5a)) was “similar”.
